Several values for one entry are separate records, joined by “and”; a condition that tells them apart may be missing. Equal values may be shown once. Non-standard residues stand in square brackets, D forms with d. Residues, ends and D or L forms follow the SMILES beside them.
What was measured:
Assay type in all cases: in vivo, human
[1] = system: malnourished subjects with CKD; assay: Phase II CKD: hormones (TSH, free thyroxin, testosterone, oestradiol); conditions: ITT
Method: A blood sample was taken at screening for analysis of TSH and free thyroxin. […] The hormones testosterone (nmol/L) and oestradiol (nmol/L) were measured at baseline and on Day 28 because those could be affected by GH and could lead to secondary changes in body composition. Samples were analysed locally.

[2] = system: malnourished subjects with CKD; assay: Phase II CKD: bioimpedance; conditions: for Basal metabolic rate: median / Body cell mass: median / Extracellular cell mass: median / Extracellular water: median / Intracellular water: median / Total body water: median / Fat free mass (%): median / Fat free mass (kg): median / Fat mass (%): median / Fat mass (kg): median: ITT; for Fat free mass (%): median / Fat free mass (kg): median / Fat mass (%): median / Fat mass (kg): median: bioimpedance
Method: Height (cm) was measured only at the screening visit. Anthrompometry was measured at every visit from baseline to follow-up. Anthropometric measurements included weight, skinfold thicknesses and arm circumference. Weight (kg) was measured using a high performance scale. Subjects were asked to stand on the scale with minimal clothing, no shoes, and with even weight on both feet. Skinfold thickness (mm) was measured by using Harpenden Skinfold Callipers at 4 sites: biceps, triceps, suprailiacal and subscapular. Arm circumference (cm) was measured using a tape measure that is flexible, inelastic and metric. The site measured was marked, and the tape was not to be too tight or too loose, and to lie flat on the skin, and be horizontal. Bioimpedance measurements were made to measure body composition at every visit from baseline to Day 28. The bioimpedance scale (RJL Systems) was used. Resistance, reactance and the phase angle were recorded.
Bioelectrical impedance (BIA) was used to evaluate body water content (total body water %, extracellular water and intracellular water), fat free mass and fat mass using Maltron BioScan 916 and BIA 450 apparatus from Biodynamics Corp. The method is fast, precise and noninvasive.
Bioimpedance measurements were done at every visit from baseline (day 0) on days 7, 14, 21 to 28. Weight and FFM (kg) were measured and FM (kg, %) and FFM (%) were derived. There was an increase from baseline in median FFM (3.3 kg) and decrease in median FM (1.8 kg) in all except one (11/12) patients in the GHRH(1-29)NH2 synthetic analog group on day 28 while there was a decrease in median FFM (0.8 kg) and increase in median FM (1.3 kg) in the placebo arm.

[3] = system: IGF-1, IGFBP-1 and IGFBP-3; assay: Phase II CKD: total IGF-1, IGFBP-1 and IGFBP-3
Method: Total IGF-1 (ng/mL), insulin-like growth factor binding protein (IGFBP-1 and IGFBP-3, ng/mL) were measured at every visit from baseline to Day 28 as markers for tissue and cell growth and proliferation. Samples were analysed at the Department of Nephrology, Endocrinology and Metabolic Diseases, Silesian University School of Medicine, Katowice using a Medgenix Diagnostics kit.

[4] = Day 0, listed as GHRH(1-29)NH2 synthetic analog
[5] = Day 28, listed as GHRH(1-29)NH2 synthetic analog

SMILES: CC[C@H](C)[C@H](NC(=O)[C@H](C)NC(=O)[C@H](CC(=O)O)NC(=O)[C@@H](C)NC(=O)[C@@H](N)Cc1ccc(O)cc1)C(=O)N[C@@H](Cc1ccccc1)C(=O)N[C@H](C(=O)N[C@@H](CC(N)=O)C(=O)N[C@@H](CO)C(=O)N[C@H](Cc1ccc(O)cc1)C(=O)N[C@@H](CCCNC(=N)N)C(=O)N[C@@H](CCCCN)C(=O)N[C@H](C(=O)N[C@@H](CC(C)C)C(=O)N[C@H](C)C(=O)N[C@@H](CCC(N)=O)C(=O)N[C@@H](CC(C)C)C(=O)N[C@@H](CO)C(=O)N[C@@H](C)C(=O)N[C@@H](CCCNC(=N)N)C(=O)N[C@@H](CCCCN)C(=O)N[C@@H](CCCCN)C(=O)N[C@@H](CC(C)C)C(=O)N[C@@H](CCC(N)=O)C(=O)N[C@@H](CC(=O)O)C(=O)N[C@H](C(=O)N[C@@H](CCSC)C(=O)N[C@@H](CO)C(=O)N[C@@H](CCCNC(=N)N)C(N)=O)[C@@H](C)CC)C(C)C)[C@@H](C)O [GHRH analog #5, [D-Ala^2, D-Tyr^10, D-Ala^15, Lys^22] hGHRH(1-29)-NH2] (H-Y[dA]DAIFTNS[dY]RKVL[dA]QLSARKKLQDIMSR-NH2)
- Oestradiol: mean (SD) ([1]; Day 0): 30.400 (23.333) pg/mL
- Testosterone: mean (SD) ([1]; Day 0): 1.550 (1.974) ng/mL
- Oestradiol: mean (SD) [1, 4]: 30.400 pg/mL
- Testosterone: mean (SD) [1, 4]: 1.550 ng/mL
- Oestradiol: mean (SD) ([1]; Day 28): 16.281 (10.896) pg/mL
- Testosterone: mean (SD) ([1]; Day 28): 1.032 (1.327) ng/mL
- Oestradiol: mean (SD) [1, 5]: 16.281 pg/mL
- Testosterone: mean (SD) [1, 5]: 1.032 ng/mL
- Median FFM ([2]; BIA, day 7): 50.4 kg
- Median FM ([2]; BIA, day 7): 13.3 kg
- Median FFM ([2]; BIA, day 14): 50.8 kg
- Median FM ([2]; BIA, day 14): 13.4 kg
- Median FFM ([2]; BIA, day 21): 50.1 kg
- Median FM ([2]; BIA, day 21): 12.6 kg
- Decrease from baseline in median FM ([2]; BIA, day 28): 1.8 kg
- Increase from baseline in median FFM ([2]; BIA, day 28): 3.3 kg
- Increase in median BMR from baseline ([2]; BIA, day 28): 49 kcal
- Basal metabolic rate: median ([2]; Baseline): 1441 kcal
- Body cell mass: median ([2]; Baseline): 23 kg and 23.0 kg
- Extracellular cell mass: median ([2]; Baseline): 23.5 kg
- Extracellular water: median ([2]; Baseline): 17.7 L
- Intracellular water: median ([2]; Baseline): 17.0 L
- Total body water: median ([2]; Baseline): 35.8 L
- Basal metabolic rate: median ([2]; Day 28): 1473 kcal
- Body cell mass: median ([2]; Day 28): 22.6 kg
- Extracellular cell mass: median ([2]; Day 28): 24.7 kg
- Extracellular water: median ([2]; Day 28): 19.1 L
- Intracellular water: median ([2]; Day 28): 15.8 L
- Total body water: median ([2]; Day 28): 38.1 L
- Ratio of median ECW/ICW ([2]; baseline): 1.04
- Fat free mass (%): median ([2]; Baseline): 75.3%
- Fat free mass (kg): median ([2]; Baseline): 48.8 kg
- Fat mass (%): median ([2]; Baseline): 24.7%
- Fat mass (kg): median ([2]; Baseline): 16.0 kg
- Fat mass (kg): median ([2]; Baseline, listed as GHRH(1-29)NH2 synthetic analog): 16 kg
- Fat free mass (%): median ([2]; Day 28): 78.6%
- Fat free mass (kg): median ([2]; Day 28): 51.1 kg
- Fat mass (%): median ([2]; Day 28): 21.4%
- Fat mass (kg): median ([2]; Day 28): 12.2 kg
- Median BCM ([2]; day 7): 25.1 kg
- Median ECM ([2]; day 7): 24.4 kg
- Median increase in BCM from baseline ([2]; day 7): 1.3 kg
- Median increase in ECM from baseline ([2]; day 7): 0.8 kg
- Median BCM ([2]; day 14): 24.3 kg
- Median ECM ([2]; day 14): 25.4 kg
- Median BCM ([2]; day 21): 23.2 kg
- Median ECM ([2]; day 21): 25.9 kg
- Increase in median ECW from baseline ([2]; day 28): 1.9 L
- Increase in median ICW from baseline ([2]; day 28): 1.2 L
- Increase in median total body water from baseline ([2]; day 28): 3 L
- Median increase in BCM from baseline ([2]; day 28): 1.8 kg
- Median increase in ECM from baseline ([2]; day 28): 1.7 kg
- Ratio of median ECW/ICW ([2]; day 28): 1.2
- Mean decrease in IGFBP-1 concentration ([3]; 4-week treatment): 26.7%
- IGFBP-3: adjusted difference between treatments ([3]; ITT): 580.85 ng/mL
- IGFBP-1: mean (SD) ([3]; ITT, Baseline): 74.98 (39.13) ng/mL
- IGFBP-3: median ([3]; ITT, Baseline): 4039.6 (813.7) ng/mL
- Total IGF-1: median (95% CI) ([3]; ITT, Baseline): 335.8 (—) ng/mL
- Total IGF-1: median (95% CI) ([3]; ITT, Baseline, listed as GHRH(1-29)NH2 synthetic analog): 335.8 ng/mL
- Total IGF-1: median (95% CI) ([3]; ITT, Day 7): 576.0 (494.10; 828.70) ng/mL
- Total IGF-1: median (95% CI) ([3]; ITT, Day 14): 611.8 (490.40; 913.60) ng/mL
- Total IGF-1: median (95% CI) ([3]; ITT, Day 21): 729.8 (497.10; 913.50) ng/mL
- IGFBP-1: mean (SD) ([3]; ITT, Day 28): 54.94 (30.72) ng/mL
- IGFBP-3: median ([3]; ITT, Day 28): 5130.8 (961.0) ng/mL
- Total IGF-1: median (95% CI) ([3]; ITT, Day 28): 684.2 (564.10; 881.80) ng/mL
- Total IGF-1: median (95% CI) ([3]; ITT, Day 28, listed as GHRH(1-29)NH2 synthetic analog): 684.2 ng/mL
- IGFBP-1: adjusted difference between GHRH and placebo ([3]; ITT, listed as GHRH(1-29)NH2 synthetic analog): 28.40 ng/mL
- Median total IGF-1: increase ([3]; baseline to day 28): 104%
